These results are taken from patent publication US9079913B2, “Spiro-oxindole MDM2 antagonists” (The Regents of the University of Michigan, priority 2009, dated 2015).

Data set [1] addresses recombinant human His-tagged MDM2 protein (residues 1-118) (Homo sapiens (Human), UniProt Q00987). In words: Fluorescence-polarization MDM2 binding assay.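 Note: fluorescence polarization read after three hours of incubation in potassium phosphate buffer containing bovine gamma globulin and Triton X-100.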
The subject of data set [2] is cancer cell lines with wild-type p53 / mutated or deleted p53 (ATCC). In words: Cell growth assay (WST-8), other cancer cell lines. Format: cell-based.
Data set [3] is described as follows: In vitro microsomal stability, rat. The settings on record: for Microsomal stability, % remaining: Rat Microsome, same batch. Format: in vitro ADME.
A short description of data set [4]: In vitro microsomal stability, human. The conditions noted are these: for Microsomal stability, % remaining: Human Microsome, same batch. It is filed as in vitro ADME.
The subject of data set [5] is Isogenic HCT-116 colon cancer cell lines. In words: cells. Format: cell-based.
Procedure: Cells were seeded in 96-well flat bottom cell culture plates at a density of 2−3×10^3 cells/well with compounds and incubated for 4 days.

Like-named read-outs stand apart in the source and are kept apart here. Where only a bound is given, the exact number is not on record here.

recombinant human His-tagged MDM2 protein (residues 1-118), sequence (Q00987 1-118): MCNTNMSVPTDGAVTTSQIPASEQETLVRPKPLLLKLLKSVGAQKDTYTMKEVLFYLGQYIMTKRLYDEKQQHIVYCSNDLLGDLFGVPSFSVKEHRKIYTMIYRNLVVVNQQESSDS

Turning to `CC(C)(C)C[C@@H]1N[C@@H](C(=O)N[C@H]2C[C@@](C)(O)C2)[C@H](c2cccc(Cl)c2F)[C@]12C(=O)Nc1c2ccc(Cl)c1F`, the IC50 in data set [1] (Table 19A, FP binding assay, read-out: MDM2 IC50) was less than 100 nM.

On to `CC(O)C(O)CCNC(=O)[C@@H]1N[C@H](CC(C)(C)C)[C@]2(C(=O)Nc3cc(Cl)c(F)cc32)[C@H]1c1cccc(Cl)c1` (stereo partly drawn) [MI-519-31], for which the IC50 in data set [2] (Table 19A, LNCAP cells, p53 wild-type, cell growth, read-out: LNCAP (p53 wild-type) IC50) was found to be 1300 ± 200 nM; in data set [2] (Table 19A, PC-3 cells, deleted p53, cell growth, read-out: PC-3 (deleted p53) IC50), 24700 ± 2000 nM; in data set [5] (read-out: HCT-116 (p53-/-) IC50, Table 19A, HCT-116 p53-/-, cell growth), 20100 ± 2500 nM; in data set [5] (read-out: HCT-116 (p53 wild-type) IC50, Table 19A, HCT-116 p53 wild-type, cell growth), 2000 ± 800 nM. The “% of compound remaining when incubated in rat liver microsomes at indicated time (min)” value stood at 100% in data set [3] (0 min); 80.1% in data set [3] (4 min); 69.4% in data set [3] (6 min); 54.3% in data set [3] (10 min); 47.7% in data set [3] (15 min); 31% in data set [3] (30 min). Moreover, the “% of compound remaining when incubated in rat liver microsomes with NADPH” value is 100.00% in data set [3] (0 min); 80.22% in data set [3] (5 min); 65.69% in data set [3] (10 min); 57.57% in data set [3] (15 min); 42.91% in data set [3] (30 min); 34.31% in data set [3] (45 min). Also, the “% of compound remaining when incubated in rat liver microsomes with NADPH” value in data set [3] (60 min) is 32.81%; in data set [3] (rat liver microsomes, NADPH, 0 min), 100.00%; in data set [3] (rat liver microsomes, NADPH, 5 min), 80.22%; in data set [3] (rat liver microsomes, NADPH, 10 min) it was 65.69%; in data set [3] (rat liver microsomes, NADPH, 15 min), 57.57%; in data set [3] (rat liver microsomes, NADPH, 30 min), 42.91%. In addition, the “% of compound remaining when incubated in rat liver microsomes with NADPH” value in data set [3] (rat liver microsomes, NADPH, 45 min) was found to be 34.31%; in data set [3] (rat liver microsomes, NADPH, 60 min), 32.81%. For the same compound, the “Microsomal stability, % remaining” value in data set [3] (0 min) is on record as 100.00%; in data set [3] (5 min), 80.22%; in data set [3] (10 min), 65.69%; in data set [3] (15 min) it was 57.57%; in data set [3] (30 min) it was 42.91%; in data set [3] (45 min), 34.31%. In addition, the “Microsomal stability, % remaining” value in data set [3] (60 min) was 32.81%; in data set [4] (0 min), 100.00%; in data set [4] (5 min), 78.11%; in data set [4] (10 min), 58.15%; in data set [4] (15 min) it was 45.42%; in data set [4] (30 min), 22.75%. Moreover, the “Microsomal stability, % remaining” value in data set [4] (45 min) is reported as 13.25%; in data set [4] (60 min) it was 8.56%. Besides, the half-life in data set [3] (rat, liver microsomes, rat liver microsomes with NADPH) worked out at 18.7 min; in data set [4] (human, liver microsomes, human liver microsomes with NADPH), 13 min. Also, the “% of compound remaining when incubated in human liver microsomes with NADPH” value in data set [4] (0 min) amounted to 100.00%; in data set [4] (5 min), 78.11%; in data set [4] (10 min) it was 58.15%; in data set [4] (15 min), 45.42%; in data set [4] (30 min) it was 22.75%; in data set [4] (45 min) it was 13.25%. Besides, the “% of compound remaining when incubated in human liver microsomes with NADPH” value in data set [4] (60 min) amounted to 8.56%; in data set [4] (human liver microsomes, NADPH, 0 min), 100.00%; in data set [4] (human liver microsomes, NADPH, 5 min) it was 78.11%; in data set [4] (human liver microsomes, NADPH, 10 min), 58.15%; in data set [4] (human liver microsomes, NADPH, 15 min), 45.42%; in data set [4] (human liver microsomes, NADPH, 30 min), 22.75%. In addition, the “% of compound remaining when incubated in human liver microsomes with NADPH” value was 13.25% in data set [4] (human liver microsomes, NADPH, 45 min) and 8.56% in data set [4] (human liver microsomes, NADPH, 60 min).

Consider `CC(C)(C)C[C@H]1N[C@@H](C(=O)NCCCN2CCCC2)[C@H](c2cccc(Cl)c2F)[C@@]12C(=O)Nc1cc(Cl)ccc12` [MI-519-43], for which the IC50 in data set [2] (Homo sapiens, LNCaP, Table 19A, LNCAP cells, p53 wild-type, cell growth, read-out: LNCAP (p53 wild-type) IC50) worked out at 1000 nM; in data set [2] (Homo sapiens, PC-3, Table 19A, PC-3 cells, deleted p53, cell growth, read-out: PC-3 (deleted p53) IC50), 3400 nM; in data set [2] (Homo sapiens, SJSA-1, Table 19A, SJSA-1 cells, p53 wild-type, cell growth, read-out: SJSA-1 (p53 wild-type) IC50), 900 ± 100 nM; in data set [5] (Homo sapiens, HCT-116, read-out: HCT-116 (p53-/-) IC50, Table 19A, HCT-116 p53-/-, cell growth), 4100 ± 500 nM; in data set [5] (Homo sapiens, HCT-116, read-out: HCT-116 (p53 wild-type) IC50, Table 19A, HCT-116 p53 wild-type, cell growth), 900 nM. The “% of compound remaining when incubated in rat liver microsomes” value in data set [3] (Table 17, 0 min) amounted to 100%; in data set [3] (Table 17, 4 min) it was 92.3%; in data set [3] (Table 17, 6 min), 86.1%; in data set [3] (Table 17, 10 min), 70.6%; in data set [3] (Table 17, 15 min), 69.9%; in data set [3] (Table 17, 30 min) it was 62.5%. Moreover, the “microsomal stability (in words)” value in data set [3] (rat liver microsomes) is “improved microsomal stability over MI-219”.

As to `CC(C)(C)C[C@H]1N[C@@H](C(=O)NCCCN2CCN(C3CC3)CC2)[C@H](c2cccc(Cl)c2F)[C@@]12C(=O)Nc1cc(Cl)ccc12` [MI-519-48], the “% of compound remaining when incubated in rat liver microsomes” value in data set [3] (Table 17, 0 min) came out at 100%; in data set [3] (Table 17, 4 min), 79.8%; in data set [3] (Table 17, 6 min) it was 64.8%; in data set [3] (Table 17, 10 min), 48.5%; in data set [3] (Table 17, 15 min), 45.2%; in data set [3] (Table 17, 30 min) it was 43.7%.

Regarding `CC(C)(C)C[C@H]1N[C@@H](C(=O)NC2CC(O)C2)[C@H](c2cccc(Cl)c2F)[C@@]12C(=O)Nc1cc(Cl)ccc12` (stereo partly drawn) [MI-519-60], the “cell growth inhibition (in words)” value in data set [2] is listed as “more potent than its epimer MI-519-63”. The IC50 is less than 3000 nM in data set [2] (Homo sapiens, LNCaP, read-out: LNCAP (p53 wild-type) IC50); less than 3000 nM in data set [2] (Homo sapiens, SJSA-1, read-out: SJSA-1 (p53 wild-type) IC50); less than 3000 nM in data set [5] (Homo sapiens, HCT-116, read-out: HCT-116 (p53 wild-type) IC50). Also, the “% of compound remaining when incubated in rat liver microsomes with NADPH” value in data set [3] (0 min) was found to be 100%; in data set [3] (5 min), 79.93%; in data set [3] (10 min), 63.72%; in data set [3] (15 min), 51.52%; in data set [3] (30 min), 40.6%; in data set [3] (45 min), 35.16%. Moreover, the “% of compound remaining when incubated in rat liver microsomes with NADPH” value in data set [3] (60 min) was found to be 29.15%. The “% of compound remaining when incubated in human liver microsomes with NADPH” value in data set [4] (0 min) was 100%; in data set [4] (5 min), 83.26%; in data set [4] (10 min) it was 68.14%; in data set [4] (15 min), 51.54%; in data set [4] (30 min) it was 49.28%; in data set [4] (45 min), 40.97%. Further, the “% of compound remaining when incubated in human liver microsomes with NADPH” value in data set [4] (60 min) is given as 37.55%.

As for `CC(C)(C)C[C@H]1N[C@@H](C(=O)NC2CN(CC(F)F)C2)[C@H](c2cccc(Cl)c2F)[C@@]12C(=O)Nc1cc(Cl)ccc12` [MI-519-72], the IC50 in data set [1] (Table 19D, read-out: MDM2 Binding Affinities IC50) was less than 1000 nM.

On to `CC(C)(C)C[C@H]1N[C@@H](C(=O)NCCN2CCCC2)[C@H](c2cccc(Cl)c2F)[C@@]12C(=O)Nc1cc(Cl)c(F)cc12` [MI-763], for which the “% of compound remaining when incubated in rat liver microsomes” value was 100% in data set [3] (Table 17, 0 min); 96.8% in data set [3] (Table 17, 4 min); 97.3% in data set [3] (Table 17, 6 min); 85.6% in data set [3] (Table 17, 10 min); 72.1% in data set [3] (Table 17, 15 min); 61.5% in data set [3] (Table 17, 30 min). In addition, the “microsomal stability (in words)” value in data set [3] (rat liver microsomes) is reported as “improved microsomal stability over MI-219”.
